Assay: Absorption and fluorescence spectra, extinction coefficient, fluorescence quantum yield
Format: physicochemical
Procedure: Absorption spectra were recorded on a Hewlett-Packard 8453 diode array UV-Vis spectrophotometer (Agilent Technologies, Inc., Santa Clara, Calif.), and fluorescence measurements were taken on a SPEX® Fluorolog 2 spectrofluorometer (HORIBA Jobin Yvon, Inc., Edison, N.J.). Melting points are not corrected. NMR spectra were obtained on a Varian Mercury 300 MHz (Varian, Inc., Palo Alto, Calif.) or on a Bruker 300 MHz DRX 300 spectrometer (Bruker Biospin Corp., Billerica, Mass.). Mass spectra were obtained on a Hewlett-Packard 1100 high-performance liquid chromatograph equipped with an 1100 mass selective detector (MS-ESI) (Agilent Technologies, Inc.).
With decreasing solvent polarity, the absorption maximum of dyes 1a-b, 2a-d shifted to longer wavelengths, and the intensity of the transition increased (Table 10, FIG. 11).
The SCRF/VSCRF predicted emission energies and the solute dipole moments before and after the vertical emission process are given in Table 16. The dipole moments of AI-BA(4) and AI-SO(4) are further decreased on the S1 surface after geometry relaxation (in MeOH solution), and then increased during the S1→S0 transition. This observation is consistent with the blue shifts of the emission bands of AI-BA(4) and AI-SO(4) with increasing solvent polarity from C6H6 to MeOH. By contrast, the dipole moment of I-SO further decreases after S1 state geometry relaxation, and then decreases during the vertical emission process. This observation also is in agreement with the red shift of the I-SO emission band with increasing solvent polarity from C6H6 to MeOH. Similarly to the absorption case, a negligible red shift (ΔEem=0.017 eV) was predicted for the emission band of I-TBA with increasing solvent polarity. A small red shift from C6H6 to DMF (with ΔEem=0.020 eV, or Δλmax=6 nm) is observed. The nearly equal emission energy observed in C6H6 and MeOH can again result in the explicit interactions between the solute and solvent molecules.

## CCn1c(O)c(/C=C/C=C(\C#N)c2cc[n+]3c(c2)C(C)(C)c2ccccc2-3)c(=O)n(CC)c1=S [AI-TBA-CN]
Butanol (BuOH)
  Absorbance λmax: 621 nm
  Emission λmax: 641 nm
  Extinction coefficient ε: 188000
  Fluorescence quantum yield Φ: 0.33
Methanol (MeOH)
  Absorbance λmax: 606 nm
  Emission λmax: 632 nm
  Extinction coefficient ε: 146000
  Fluorescence quantum yield Φ: 0.22
Water-Methanol (H2O—MeOH)
  Absorbance λmax: 593 nm
  Emission λmax: 625 nm
  Extinction coefficient ε: 77000
  Fluorescence quantum yield Φ: 0.17

## CC1(C)c2ccccc2-[n+]2ccc(/C(C#N)=C/C=C/C3=C(O)c4ccccc4S3(=O)=O)cc21 [AI-SO-CN]
Butanol (BuOH)
  Absorbance λmax: 619 nm
  Emission λmax: 640 nm
  Extinction coefficient ε: 168000
  Fluorescence quantum yield Φ: 0.29
Methanol (MeOH)
  Absorbance λmax: 608 nm
  Emission λmax: 624 nm
  Extinction coefficient ε: 163000
  Fluorescence quantum yield Φ: 0.08
Water-Methanol (H2O—MeOH)
  Absorbance λmax: 601 nm
  Emission λmax: 624 nm
  Extinction coefficient ε: 128000
  Fluorescence quantum yield Φ: 0.08

## Cn1c(O)c(/C=C/C=C(\C#N)c2cc[n+]3c(c2)C(C)(C)c2ccccc2-3)c(=O)n(C)c1=O [AI-BA-CN]
Butanol (BuOH)
  Absorbance λmax: 600 nm
  Emission λmax: 620 nm
  Extinction coefficient ε: 189000
  Fluorescence quantum yield Φ: 0.25
Methanol (MeOH)
  Absorbance λmax: 589 nm
  Emission λmax: 613 nm
  Extinction coefficient ε: 180000
  Fluorescence quantum yield Φ: 0.05
Water-Methanol (H2O—MeOH)
  Absorbance λmax: 578 nm
  Emission λmax: 607 nm
  Extinction coefficient ε: 123000
  Fluorescence quantum yield Φ: 0.15

## CCn1c([O-])c(/C=C/C=C/c2cc[n+]3c(c2)C(C)(C)c2ccccc2-3)c(=O)n(CC)c1=S [AI-TBA]
Butanol (BuOH)
  Absorbance λmax: 619 nm
  Extinction coefficient ε: 53000
C6H6
  Absorption energy Eabs Exp: 1.816 eV
MeOH
  Absorption energy Eabs Exp: 2.153 eV
Methanol (MeOH)
  Absorbance λmax: 576 nm
  Extinction coefficient ε: 38000
Table 10, BuOH
  Observed absorption (ε): (53000)
  Observed absorption λmax: 619 nm
Table 10, C6H6
  Observed absorption (ε): (135000)
  Observed absorption λmax: 683 nm
Table 10, CH2Cl2
  Observed absorption (ε): (104000)
  Observed absorption λmax: 655 nm
Table 10, CH3CN
  Observed absorption (ε): (54000)
  Observed absorption λmax: 615 nm
Table 10, DMF
  Observed absorption (ε): (52000)
  Observed absorption λmax: 616 nm
Table 10, DMSO
  Observed absorption (ε): (56000)
  Observed absorption λmax: 607 nm
Table 10, EtOH
  Observed absorption (ε): (46000)
  Observed absorption λmax: 603 nm
Table 10, MeOH
  Observed absorption (ε): (38000)
  Observed absorption λmax: 576 nm
Table 10, OcOH
  Observed absorption (ε): (97000)
  Observed absorption λmax: 633 nm
Table 10, i-PrOH
  Observed absorption (ε): (50000)
  Observed absorption λmax: 618 nm
Table 12, C6H6
  Absorption Exp wavelength: 683 nm
Table 12, MeOH
  Absorption Exp wavelength: 576 nm

## Cn1c(O)c(/C=C/C=C/c2cc[n+]3c(c2)C(C)(C)c2ccccc2-3)c(=O)n(C)c1=O [AI-BA]
Butanol (BuOH)
  Absorbance λmax: 615 nm
  Emission λmax: 654 nm
  Extinction coefficient ε: 154000
  Fluorescence quantum yield Φ: 0.29
Methanol (MeOH)
  Absorbance λmax: 585 nm
  Emission λmax: 618 nm
  Extinction coefficient ε: 83000
  Fluorescence quantum yield Φ: 0.52

## C[n+]1ccc(/C=C/C2=C([O-])c3ccccc3S2(=O)=O)cc1 [P-SO(2)]
Table 10, BuOH
  Observed absorption (ε): (67000)
  Observed absorption λmax: 519 nm
Table 10, C6H6
  Observed absorption (ε): (169000)
  Observed absorption λmax: 538 nm
Table 10, CH2Cl2
  Observed absorption (ε): (128000)
  Observed absorption λmax: 529 nm
Table 10, CH3CN
  Observed absorption (ε): (89000)
  Observed absorption λmax: 546 nm
Table 10, DMF
  Observed absorption (ε): (92000)
  Observed absorption λmax: 522 nm
Table 10, DMSO
  Observed absorption (ε): (75000)
  Observed absorption λmax: 520 nm
Table 10, EtOH
  Observed absorption (ε): (65000)
  Observed absorption λmax: 514 nm
Table 10, MeOH
  Observed absorption (ε): (57000)
  Observed absorption λmax: 505 nm
Table 10, OcOH
  Observed absorption (ε): (72000)
  Observed absorption λmax: 524 nm
Table 10, i-PrOH
  Observed absorption (ε): (72000)
  Observed absorption λmax: 518 nm
Table 15, BuOH
  Observed emission (Φ): 0.015
  Observed emission λmax: 535 nm
Table 15, C6H6
  Observed emission (Φ): 0.004
  Observed emission λmax: 546 nm
Table 15, CH2Cl2
  Observed emission (Φ): 0.01
  Observed emission λmax: 541 nm
Table 15, CH3CN
  Observed emission (Φ): 0.011
  Observed emission λmax: 531 nm
Table 15, DMF
  Observed emission (Φ): 0.025
  Observed emission λmax: 534 nm
Table 15, DMSO
  Observed emission (Φ): 0.024
  Observed emission λmax: 535 nm
Table 15, EtOH
  Observed emission (Φ): 0.008
  Observed emission λmax: 533 nm
Table 15, MeOH
  Observed emission (Φ): 0.005
  Observed emission λmax: 529 nm
Table 15, OcOH
  Observed emission (Φ): 0.024
  Observed emission λmax: 536 nm
Table 15, i-PrOH
  Observed emission (Φ): 0.014
  Observed emission λmax: 532 nm

Source: US8835632B2, “Methods to increase the photostability of dyes” (The University of North Carolina at Chapel Hill, priority 2007, dated 2014)
